Laboratory results published in US6737383B1, “Herbicidal oxadiazolidines” (priority 1999, dated 2004).

Experiments:
crabgrass = assay: Test B pre/postemergence crabgrass; format: in vivo, Digitaria sanguinalis
Method in brief: (§1)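 Herbicidal effect was estimated by eye on a ten-point control scale after plants spent twelve to sixteen days in a greenhouse following soil or foliar treatment. Foliar sprays targeted plants at one to four leaves; all doses were formulated in a non-phytotoxic solvent with surfactant.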

pigweed = assay: Test B pre/postemergence pigweed; format: in vivo, Amaranthus retroflexus
Method in brief: as §1

morningglory = assay: Test B pre/postemergence morningglory; format: in vivo, Ipomoea hederacea
Method in brief: as §1

bamyardgrass = assay: Test B flood test barnyardgrass; format: in vivo, Echinochloa crus-galli
Method in brief: (§2)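 Each value is a visual injury score relative to controls, with 10 meaning complete control and 0 no effect. Evaluation took place twelve to sixteen days after the 2-leaf-stage plants were treated and kept in the greenhouse.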

rice = assay: Test B flood test rice; format: in vivo, Oryza sativa
Method in brief: as §2

soybean = assay: Test B pre/postemergence soybean; format: in vivo, Glycine max
Method in brief: as §1

sugar beet = assay: Test B pre/postemergence sugar beet; format: in vivo, Beta vulgaris
Method in brief: as §1

velvetleaf = assay: Test B pre/postemergence velvetleaf; format: in vivo, Abutilon theophrasti
Method in brief: as §1

cocklebur = assay: Test B pre/postemergence cocklebur; format: in vivo, Xanthium strumarium
Method in brief: as §1

bedstraw = assay: Test B pre/postemergence bedstraw; format: in vivo, Galium aparine
Method in brief: as §1

smallflower flatsedge = assay: Test B flood test smallflower flatsedge; format: in vivo, Cyperus difformis
Method in brief: as §2

rape = assay: Test B pre/postemergence rape; format: in vivo, Brassica napus
Method in brief: as §1

wild oat = assay: Test B pre/postemergence wild oat; format: in vivo, Avena fatua
Method in brief: as §1

duck salad = assay: Test B flood test duck salad; format: in vivo, Heteranthera limosa
Method in brief: as §2

corn = assay: Test B pre/postemergence corn; format: in vivo, Zea mays
Method in brief: as §1

surinam grass = assay: Test B pre/postemergence surinam grass; format: in vivo, Brachiaria decumbens
Method in brief: as §1

[1] = Preemergence, Rate 62 g/ha, scale of 0 to 10 where 0 is no effect and 10 is complete control
[2] = Preemergence, Rate 250 g/ha, scale of 0 to 10 where 0 is no effect and 10 is complete control
[3] = Preemergence, Rate 500 g/ha, scale of 0 to 10 where 0 is no effect and 10 is complete control
[4] = Rate 62 g/ha, Postemergence, scale of 0 to 10 where 0 is no effect and 10 is complete control
[5] = Rate 125 g/ha, Postemergence, scale 0 to 10
[6] = Rate 125 g/ha, Preemergence, scale of 0 to 10 where 0 is no effect and 10 is complete control
[7] = Rate 500 g/ha, Postemergence, scale 0 to 10
[8] = Rate 62 g/ha, headed Pre-emergence (flood test species), scale 0 to 10 (0 no effect, 10 complete control)
[9] = Rate 125 g/ha, Pre-emergence, flood test species, scale 0 to 10 where 0 is no effect and 10 is complete control
[10] = Rate 250 g/ha, Pre-emergence, flood-test species, scale 0 to 10, 0 is no effect, 10 is complete control
[11] = Rate 500 g/ha, Pre-emergence, flood test species, scale 0 to 10 (0 no effect, 10 complete control)

CCOC(=O)C=CCn1c(=O)on(C(=O)N(c2ccc(F)cc2)C(C)C)c1=O [Compound 214]
7: Morningglory plant response rating (morningglory; [7])
2: Morningglory plant response rating (morningglory; [4]) | Plant response rating (0 to 10; 0 is no effect, 10 is complete control), Bedstraw (bedstraw; Rate 250 g/ha, Postemergence)
8: Bedstraw plant response rating (bedstraw; [7])
3: Crabgrass plant response rating (crabgrass; [5]) | Plant response rating (0 to 10; 0 is no effect, 10 is complete control), Crabgrass (crabgrass; Rate 250 g/ha, Postemergence) | Redroot pigweed plant response rating (pigweed; [7]) | Morningglory plant response rating (morningglory; [5]) | Plant response rating (0 to 10; 0 is no effect, 10 is complete control), Soybean (soybean; Rate 250 g/ha, Postemergence) | Soybean plant response rating (soybean; [7]) | Plant response rating (0 to 10; 0 is no effect, 10 is complete control), Rape (rape; Rate 250 g/ha, Postemergence) | Rape plant response rating (rape; [7])
0: Crabgrass plant response rating (crabgrass; [1]) | Crabgrass plant response rating (crabgrass; [6]) | Redroot pigweed plant response rating (pigweed; [1]) | Redroot pigweed plant response rating (pigweed; [4]) | Redroot pigweed plant response rating (pigweed; [5]) | Redroot pigweed plant response rating (pigweed; [6]) | Morningglory plant response rating (morningglory; [1]) | Morningglory plant response rating (morningglory; [2]) | Plant response rating, Morningglory (morningglory; [3]) | Morningglory plant response rating (morningglory; [6]) | Barnyardgrass plant response rating (bamyardgrass; [8]) | Barnyardgrass plant response rating (bamyardgrass; [9]) | Barnyardgrass plant response rating (bamyardgrass; [10]) | Barnyardgrass plant response rating (bamyardgrass; [11]) | Rice plant response rating (rice; [8]) | Rice plant response rating (rice; [9]) | Rice plant response rating (rice; [10]) | Rice plant response rating (rice; [11]) | Soybean plant response rating (soybean; [1]) | Soybean plant response rating (soybean; [2]) | Soybean plant response rating (soybean; [4]) | Soybean plant response rating (soybean; [6]) | Sugarbeets plant response rating (sugar beet; [1]) | Sugarbeets plant response rating (sugar beet; [2]) | Plant response rating, Sugarbeets (sugar beet; [3]) | Sugarbeets plant response rating (sugar beet; [4]) | Sugarbeets plant response rating (sugar beet; [5]) | Sugarbeets plant response rating (sugar beet; [6]) | Plant response rating (0 to 10; 0 is no effect, 10 is complete control), Sugarbeets (sugar beet; Rate 250 g/ha, Postemergence) | Sugarbeets plant response rating (sugar beet; [7]) | Velvetleaf plant response rating (velvetleaf; [1]) | Velvetleaf plant response rating (velvetleaf; [2]) | Plant response rating, Velvetleaf (velvetleaf; [3]) | Velvetleaf plant response rating (velvetleaf; [4]) | Velvetleaf plant response rating (velvetleaf; [5]) | Velvetleaf plant response rating (velvetleaf; [6]) | Plant response rating (0 to 10; 0 is no effect, 10 is complete control), Velvetleaf (velvetleaf; Rate 250 g/ha, Postemergence) | Cocklebur plant response rating (cocklebur; [1]) | Cocklebur plant response rating (cocklebur; [2]) | Plant response rating, Cocklebur (cocklebur; [3]) | Cocklebur plant response rating (cocklebur; [4]) | Cocklebur plant response rating (cocklebur; [5]) | Cocklebur plant response rating (cocklebur; [6]) | Plant response rating (0 to 10; 0 is no effect, 10 is complete control), Cocklebur (cocklebur; Rate 250 g/ha, Postemergence) | Cocklebur plant response rating (cocklebur; [7]) | Bedstraw plant response rating (bedstraw; [1]) | Bedstraw plant response rating (bedstraw; [2]) | Plant response rating, Bedstraw (bedstraw; [3]) | Bedstraw plant response rating (bedstraw; [4]) | Bedstraw plant response rating (bedstraw; [5]) | Bedstraw plant response rating (bedstraw; [6]) | S. Flatsedge plant response rating (smallflower flatsedge; [8]) | S. Flatsedge plant response rating (smallflower flatsedge; [9]) | S. Flatsedge plant response rating (smallflower flatsedge; [10]) | S. Flatsedge plant response rating (smallflower flatsedge; [11]) | Rape plant response rating (rape; [1]) | Rape plant response rating (rape; [2]) | Plant response rating, Rape (rape; [3]) | Rape plant response rating (rape; [4]) | Rape plant response rating (rape; [5]) | Rape plant response rating (rape; [6]) | Wild oats plant response rating (wild oat; [1]) | Wild oats plant response rating (wild oat; [2]) | Plant response rating, Wild oats (wild oat; [3]) | Wild oats plant response rating (wild oat; [4]) | Wild oats plant response rating (wild oat; [5]) | Wild oats plant response rating (wild oat; [6]) | Plant response rating (0 to 10; 0 is no effect, 10 is complete control), Wild oats (wild oat; Rate 250 g/ha, Postemergence) | Ducksalad plant response rating (duck salad; [8]) | Ducksalad plant response rating (duck salad; [9]) | Ducksalad plant response rating (duck salad; [10]) | Ducksalad plant response rating (duck salad; [11]) | Corn plant response rating (corn; [1]) | Corn plant response rating (corn; [2]) | Plant response rating, Corn (corn; [3]) | Corn plant response rating (corn; [4]) | Corn plant response rating (corn; [5]) | Corn plant response rating (corn; [6]) | Plant response rating (0 to 10; 0 is no effect, 10 is complete control), Corn (corn; Rate 250 g/ha, Postemergence) | Corn plant response rating (corn; [7]) | B. signalgrass plant response rating (surinam grass; [1]) | B. signalgrass plant response rating (surinam grass; Preemergence, Rate 250 g/ha, scale 0 to 10, 0 is no effect, 10 is complete control) | Plant response rating, B. signalgrass (surinam grass; [3]) | B. signalgrass plant response rating (surinam grass; [4]) | B. signalgrass plant response rating (surinam grass; Rate 125 g/ha, Postemergence, scale 0 (no effect) to 10 (complete control)) | B. signalgrass plant response rating (surinam grass; [6]) | Plant response rating (0 to 10; 0 is no effect, 10 is complete control), B. signalgrass (surinam grass; Rate 250 g/ha, Postemergence) | B. signalgrass plant response rating (surinam grass; Rate 500 g/ha, Postemergence, scale 0 to 10, 0 no effect, 10 complete control)
6: Redroot pigweed plant response rating (pigweed; [2]) | Plant response rating (0 to 10; 0 is no effect, 10 is complete control), Morningglory (morningglory; Rate 250 g/ha, Postemergence)
4: Plant response rating, Crabgrass (crabgrass; [3]) | Plant response rating, Soybean (soybean; [3])
9: Plant response rating, Redroot pigweed (pigweed; [3])
5: Crabgrass plant response rating (crabgrass; [7])
1: Crabgrass plant response rating (crabgrass; [2]) | Crabgrass plant response rating (crabgrass; [4]) | Plant response rating (0 to 10; 0 is no effect, 10 is complete control), Redroot pigweed (pigweed; Rate 250 g/ha, Postemergence) | Soybean plant response rating (soybean; [5])
